Data set [1] has as its target T1, Heat shock factor protein 1 (Mus musculus, UniProt P38532).
T1 sequence (P38532 whole entry): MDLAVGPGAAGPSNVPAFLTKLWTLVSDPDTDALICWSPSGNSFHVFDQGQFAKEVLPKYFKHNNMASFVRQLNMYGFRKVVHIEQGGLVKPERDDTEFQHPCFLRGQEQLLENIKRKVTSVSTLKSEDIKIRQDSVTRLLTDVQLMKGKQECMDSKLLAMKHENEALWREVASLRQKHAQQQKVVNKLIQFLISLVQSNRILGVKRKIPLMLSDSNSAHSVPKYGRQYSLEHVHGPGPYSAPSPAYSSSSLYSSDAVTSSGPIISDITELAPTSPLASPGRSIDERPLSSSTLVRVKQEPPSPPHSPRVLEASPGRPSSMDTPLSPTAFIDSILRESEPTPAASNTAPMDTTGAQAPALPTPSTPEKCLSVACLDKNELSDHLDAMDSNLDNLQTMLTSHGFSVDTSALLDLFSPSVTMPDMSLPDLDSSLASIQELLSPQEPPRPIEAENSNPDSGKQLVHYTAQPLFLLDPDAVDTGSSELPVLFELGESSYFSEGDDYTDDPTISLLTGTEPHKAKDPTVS
Put plainly: decrease of HSF1-responsive luciferase luminescence – cell-based, NIH3T3, dose retest, confirmation (AID 2382).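 Also: NIH3T3 fibroblasts with HSF1-driven luciferase reporter stressed by proteasome inhibitor MG132; luminescence from HSF1-driven luciferase expression after 8 hours of MG132 stress.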 Format: functional.

The target in data set [2] is Cytochrome P450 2C19 (Homo sapiens, UniProt P33261). Put plainly: Cytochrome panel assay with activity outcomes. Panel member name: p450-cyp2c19 Compounds with AC50 equal or less than 10 uM are considered active. Format: functional.
Data set [3] concerns the target T2, Cytochrome P450 1A2 (Homo sapiens, UniProt P05177).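 Also: PubChem cytochrome P450 panel assay, CYP1A2 panel member.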
T2 sequence (P05177 whole entry): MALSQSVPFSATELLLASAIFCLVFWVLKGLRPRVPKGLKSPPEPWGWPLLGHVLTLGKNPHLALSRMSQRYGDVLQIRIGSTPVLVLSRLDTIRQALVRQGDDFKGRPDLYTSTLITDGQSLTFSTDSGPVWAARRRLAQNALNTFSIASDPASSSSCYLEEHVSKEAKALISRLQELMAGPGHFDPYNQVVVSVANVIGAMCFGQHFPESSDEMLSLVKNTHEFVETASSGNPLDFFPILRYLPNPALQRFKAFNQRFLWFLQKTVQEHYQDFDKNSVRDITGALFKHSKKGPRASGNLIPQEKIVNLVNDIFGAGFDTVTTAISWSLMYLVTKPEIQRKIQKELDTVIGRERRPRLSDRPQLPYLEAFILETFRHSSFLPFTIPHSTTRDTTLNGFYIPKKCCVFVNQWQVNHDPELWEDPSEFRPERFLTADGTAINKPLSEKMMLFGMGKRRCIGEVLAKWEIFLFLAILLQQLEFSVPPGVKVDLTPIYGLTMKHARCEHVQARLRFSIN

In data set [4] the test system is Streptococcus sp. 'group A'. Nature of the data set: Streptococcus pyogenes SK(-)GAS viability under kanamycin – luminescence, BacTiterGlo, confirmation, counter-screen for streptokinase expression inhibitor project, dose response (AID 1900). Format: functional, organism-based. Background: The purpose of a counterscreen is to sort out artefacts and off-target activity.

The target of data set [5] is T3, Streptokinase A (Streptococcus pyogenes serotype M1, UniProt P10520).
T3 sequence (P10520 whole entry): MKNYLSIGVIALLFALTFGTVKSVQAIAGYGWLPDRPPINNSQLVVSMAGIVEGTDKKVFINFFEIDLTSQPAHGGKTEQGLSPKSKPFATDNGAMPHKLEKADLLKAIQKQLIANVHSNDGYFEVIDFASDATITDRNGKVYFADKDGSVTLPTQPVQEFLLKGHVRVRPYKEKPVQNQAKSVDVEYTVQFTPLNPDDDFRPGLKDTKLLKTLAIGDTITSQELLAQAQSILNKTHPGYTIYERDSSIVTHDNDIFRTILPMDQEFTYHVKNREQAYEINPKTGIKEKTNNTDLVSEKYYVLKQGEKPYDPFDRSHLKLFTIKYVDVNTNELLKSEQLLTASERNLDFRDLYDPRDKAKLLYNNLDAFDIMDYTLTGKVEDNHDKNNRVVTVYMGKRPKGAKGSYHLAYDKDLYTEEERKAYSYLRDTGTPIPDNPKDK
Nature of the data set: viability-normalized secreted streptokinase activity reduction – plasminogen activation absorbance, OD405, dose response (AID 1914).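 Also: secreted streptokinase activity via plasminogen activation per viability signal from cell pellet.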 It counts as functional, Streptococcus pyogenes M1 GAS.

Data set [6] has as its system Streptococcus. Nature of the data set: GAS UMAA2166 growth inhibition – luminescence, BacTiterGlo, counter-screen for streptokinase expression inhibitor project, dose response (AID 1915).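 Also: potency for reduction of bacterial viability or growth.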 Format: functional, organism-based.
Data set [7] can be described thus: NIH3T3 cell viability loss – ATP luminescence, mouse fibroblasts, counter-screen, dose response (AID 2010).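 Also: cells exposed to compound for about 90 hours before reading.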 It counts as functional, cell-based.
Data set [8] in a line: Trypanosoma cruzi growth suppression in host cells – NIH3T3 host cells, beta-gal luminescence, confirmation (AID 2044).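 Also: intracellular parasites grown in NIH/3T3 mouse fibroblasts as host cells; luminescent beta-galactosidase reporter signal from transgenic T. cruzi replicating inside host cells; inhibitors lower the luminescence signal.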 It counts as functional, cell-based.

The source made the active and inactive calls. Bounds are passed on as bounds.

Chain of Cytochrome P450 2C19 (P33261 whole entry): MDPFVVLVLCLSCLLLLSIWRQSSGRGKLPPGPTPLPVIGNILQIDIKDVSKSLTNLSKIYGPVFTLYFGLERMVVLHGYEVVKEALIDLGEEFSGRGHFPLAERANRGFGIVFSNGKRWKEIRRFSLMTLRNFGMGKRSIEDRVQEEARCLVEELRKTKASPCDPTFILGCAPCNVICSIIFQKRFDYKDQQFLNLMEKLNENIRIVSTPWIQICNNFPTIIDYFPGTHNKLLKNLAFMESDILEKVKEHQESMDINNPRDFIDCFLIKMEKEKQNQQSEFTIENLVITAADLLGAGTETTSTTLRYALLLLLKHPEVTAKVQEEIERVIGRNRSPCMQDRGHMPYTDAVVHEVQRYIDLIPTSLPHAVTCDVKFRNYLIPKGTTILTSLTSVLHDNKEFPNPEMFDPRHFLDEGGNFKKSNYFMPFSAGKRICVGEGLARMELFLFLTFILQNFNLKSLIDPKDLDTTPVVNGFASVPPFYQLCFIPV

As for `COc1cccc(CNC(=O)Cn2c(=O)c3cccn3c3ccccc32)c1`, the EC50 (usually the concentration that produces a half-maximal response) in data set [1] is listed as > 195 µM (not active).
With `Cc1ccc(Cn2ncc3c(N4CCN(C)CC4)ncnc32)cc1`, the half-maximal effective concentration (EC50) in data set [1] is reported as > 195 µM (not active).
Take `Cc1ccc(C)c(NC(=O)COc2coc(CN3CCc4ccccc4C3)cc2=O)c1`: in data set [1], the EC50 is reported as > 195 µM (not active).
With `C[C@@](N)(C(=O)O)c1cccc(CC(=O)O)c1`, the figures for the AC50 in data set [2] (read-out: AC50) and in data set [3] were 20 µM (inconclusive) and 39.8 µM (inconclusive), respectively.
`Oc1nc(CSc2ncnc3sccc23)nc2ccccc12`: the concentration for a half-maximal effect (EC50) in data set [4] is 0.734 µM (active); in data set [5] it was > 150 µM (not active); in data set [6], 14.3 µM (active).
For the compound `CCN(CC)S(=O)(=O)c1ccc(N2CCN(c3cccc(OC)c3)CC2)c([N+](=O)[O-])c1`, the results for the concentration giving a half-maximal response (EC50) in data set [7] and in data set [8] were > 60 µM (not active) and 1.3 µM (active), respectively.
For `O=[N+]([O-])c1cccc(/C=N/Nc2nc(N3CCCCC3)nc(N3CCCCC3)n2)c1`, the 50% effective concentration (EC50) in data set [4] is 33.5 µM (active); in data set [5], 39.4 µM (active); in data set [6], > 150 µM (not active).
As to `Cc1ccc(S(=O)(=O)c2c(C(=O)c3ccccc3)cnc3cc4c(cc23)OCCO4)cc1`, in data set [1], the EC50 is > 195 µM (not active).
Consider `Cc1ccccc1Nc1c(-c2ccncc2)nc2ccc(Br)cn12`, for which the half-maximal effective concentration (EC50) in data set [7] is > 30 µM (not active); in data set [8], 0.832 µM (active).
For the compound `COc1ccc(C2C(=O)N(C3CCCCCC3)CC(=O)N2Cc2ccccc2)cc1OC` (stereo not drawn), the AC50 (usually the midpoint of the concentration-response curve, whichever way the signal moves) in data set [2] (read-out: AC50) was 39.8 µM (inconclusive).
Consider `N#Cc1cccc(-c2nccc(NCc3cccnc3)n2)c1`, for which the AC50 in data set [2] (read-out: AC50) was 20 µM (inconclusive).
On to `O=C(CSc1nnc(NC(=O)C2CC(=O)N(c3ccc(F)cc3)C2)s1)NCc1ccco1` (stereo not drawn), for which the concentration for a half-maximal effect (EC50) in data set [4], in data set [5] and in data set [6] was > 150 µM (not active) throughout.
With `CC(C)Cn1c(=O)n(C)c(=O)c2[nH]cnc21` [ISOBUTYLMETHYLXANTHINE], in data set [3], the AC50 was 20 µM (inconclusive).
For `Nn1c(=O)c2ccccc2n2c(SCc3ccccc3)nnc12`, in data set [1], the EC50 was > 195 µM (not active).
In the case of `O=C(O)CCN1Cc2ccccc2C1=O`, the EC50 in data set [1] is recorded as > 195 µM (not active).
Turning to `O=[N+]([O-])c1ccc(Sc2nccn2Cc2ccccc2)c([N+](=O)[O-])c1`, the results for the concentration for a half-maximal effect (EC50) in data set [7] and in data set [8] were > 60 µM (not active) and 3.06 µM (active), respectively.
For `COC(=O)c1cc2ccsc2n1Cc1nc(-c2ccc(Cl)cc2)oc1C`, the EC50 in data set [1] is reported as > 195 µM (not active).
Consider `COc1ccc(-n2c(=O)[nH]cc(C(=O)Nc3ccc4c(c3)OCCO4)c2=O)cc1`, for which the AC50 in data set [2] (read-out: AC50) was 10 µM (inconclusive).
With `Cc1ccc(CN2CCN(Cc3cccc4c3OCO4)CC2CCO)cc1` (stereo not drawn), the EC50 in data set [7] is > 60 µM (not active); in data set [8] it was 0.258 µM (active).
On to `CSc1nc(NCc2ccccc2)c2c3c(sc2n1)CN(C)CC3`, for which the EC50 is > 30 µM (not active) in data set [7] and 0.208 µM (active) in data set [8].
On to `CNc1cc(N2CCCCCC2)ccc1[N+](=O)[O-]`, for which, in data set [2] (read-out: AC50), the AC50 was 3.55 µM (inconclusive).
As for `Cc1nc(-c2ccc(Cl)cc2)sc1C1(C)CC(c2ccc(Cl)cc2)=NO1` (stereo not drawn), the EC50 in data set [1] is given as > 195 µM (not active).
The same measure, in the same setting: in the case of `CCCN1C(=O)/C(=C\c2ccncc2)S/C1=N/c1ccccc1` it was > 195 µM (not active).
As for `CC(C)NC(=O)N1CC2(CCN(C(=O)c3cc(C(F)(F)F)cc(C(F)(F)F)c3)CC2)C1`, the half-maximal activity concentration (AC50) in data set [3] is 12.6 µM (inconclusive).
On to `CCOC(=O)Cc1csc(NC(=O)CSc2nnc(-c3ccc(OC)cc3)n2C)n1`, for which the EC50 in data set [7] and in data set [8] was > 60 µM (not active) each time.
Consider `CC(=O)N(CCCc1ccc(C(C)(C)C)cc1)CCCN(C)C`, for which the results for the EC50 in data set [7] and in data set [8] were > 60 µM (not active) and 0.65 µM (active), respectively.
For `Cc1ccc(CN(C(=O)Cc2cccs2)C(C(=O)NC2CCCC2)c2ccncc2)cc1` (stereo not drawn), the values for the EC50 in data set [7] and in data set [8] were > 60 µM (not active) and 2.29 µM (active), respectively.
Regarding `CC(=O)Nc1c(O)oc2ccccc2/c1=N\C(C)C`, in data set [2], the half-maximal activity concentration (AC50) result is reported as “inconclusive”.
Same read-out and setting: in the case of `COC(=O)c1cc(=O)n(C2CC2)/c(=N/C2CC2)s1` it was “inconclusive”.
In the case of `CCCc1c(OCCCOc2ccc(OCC(=O)O)cc2)ccc(CC=O)c1O`, the concentration at half-maximal activity (AC50) in data set [3] is 31.6 µM (inconclusive).
For the compound `Cc1ccccc1-n1cnc2c(sc3nc(N4CCOCC4)c4c(c32)CCCC4)c1=O`, the EC50 in data set [7] was > 60 µM (not active); in data set [8], 1.8 µM (active).
As for `CN(C)c1ccc(C(=S)N2CCN(S(=O)(=O)c3ccccc3)CC2)cc1`, the concentration for a half-maximal effect (EC50) in data set [7] was > 60 µM (not active); in data set [8] it was 2.98 µM (active).
Turning to `NC(=O)C1CCN(c2ccnc3cc(Cl)ccc23)CC1`, in data set [1], the EC50 is > 195 µM (not active).
Same read-out and setting: to `CN(C)/C=C/C(=O)c1ccc(-c2ccc(Cl)cc2Cl)o1` belongs > 195 µM (not active).
With `O=C(CSc1nc2cc(Cl)ccc2s1)Nc1cccc(S(=O)(=O)N2CCOCC2)c1`, the EC50 in data set [1] was > 195 µM (not active).
With `CN(C)CCCNc1cnnc(O)c1Cl`, the EC50 in data set [7] is > 30 µM (not active); in data set [8] it was 0.658 µM (active).
As for `O=c1c(-c2cc(F)cc(F)c2)nc2cnc(N3CCOCC3)nc2n1-c1ccccc1`, the AC50 in data set [3] was 5.01 µM (inconclusive).
Consider `COc1cc(NC(=O)c2cc3cccc(OC)c3o2)cc(C(=O)Nc2cccc(C(F)(F)F)c2)c1`, for which the EC50 in data set [1] is 3.5 µM (active).
With `CCOC(=O)c1cnc(-c2ccccc2)nc1Oc1cccc(Cl)c1`, in data set [2] (read-out: AC50), the AC50 is 3.98 µM (inconclusive).
With `O=C1CC(c2nc3ccccc3[nH]2)CN1c1ccccc1F` (stereo not drawn), the concentration giving a half-maximal response (EC50) in data set [1] is > 195 µM (not active).
For `COc1ccc(C(Nc2ccccn2)c2c(NC(=O)c3ccco3)sc(C)c2C)cc1` (stereo not drawn), the values for the half-maximal effective concentration (EC50) in data set [7] and in data set [8] were > 60 µM (not active) and 1.86 µM (active), respectively.
Turning to `N#CCCn1c(=O)cnc2cnc(Oc3ccccc3)nc21`, the AC50 in data set [3] is 15.8 µM (inconclusive).
As for `COC(=O)[C@H]1[C@H]2C[C@@H]3c4[nH]c5cc(OC)ccc5c4CCN3C[C@H]2C[C@@H](OC(=O)c2ccc(N)cc2)[C@@H]1OC`, the half-maximal effective concentration (EC50) was > 195 µM (not active) in data set [1], > 30 µM (not active) in data set [7] and 2.04 µM (active) in data set [8].
Regarding `O=C(NC(=S)Nn1cnc2c(cnn2-c2ccccc2)c1=O)c1ccc(Oc2ccccc2)cc1`, the EC50 in data set [5] and in data set [6] was > 150 µM (not active) throughout.
In the case of `S=C1NCN2CCN(CC2)CNC(=S)C(=S)NCN2CCN(CC2)CNC1=S`, the AC50 in data set [3] was 3.16 µM (inconclusive).
On to `COc1ccc(C(=O)C2CCCN(Cc3ccc(C#CCCO)cc3)C2)cc1F` (stereo not drawn), for which the EC50 in data set [7] was > 60 µM (not active); in data set [8], 0.475 µM (active).
Turning to `CSc1ncc(C(=O)Nc2cccnc2)c(C(F)(F)F)n1`, the EC50 in data set [1] was > 195 µM (not active).
Turning to `Oc1ccccc1CNn1cnnc1`, in data set [2] (read-out: AC50), the concentration at half-maximal activity (AC50) was 0.2 µM (inconclusive).
As for `O=C(Cn1cnc2c(nnn2Cc2ccc(Cl)cc2)c1=O)N1CCCc2ccccc21`, the EC50 in data set [1] is > 195 µM (not active).
`CC1=[N+]([O-])C2(C)CCCCC2(O)[N+]([O-])=C1C` (stereo not drawn): in data set [2] (read-out: AC50), the concentration at half-maximal activity (AC50) is 15.8 µM (inconclusive).

The values above are taken from ChEMBL document CHEMBL1201862, “PubChem BioAssay data set” (2004).
